Values joined by “and” are separate entries in the source; they are usually repeats but may differ in a detail not shown here. Identical values can stand only once.
What was measured:
[1] = In vitro stability in mouse serum (HPLC); format: in vitro ADME; settings: 37 °C, normalized to 0 h, n = 3
Experimental: Stability of the ^55Co-labeled folates was monitored over a period of 24 h in phosphate buffered saline (PBS) and mouse serum, to monitor the stability of a dose prior to injection (for potential shipment to a PET center) and match the longest biodistribution time point, respectively. The percentage of the intact complex was monitored at 1 h, 4 h, and 24 h via radio-TLC (PBS) or HPLC (mouse serum). […] In PBS, both radioconjugates retained 93% or greater stability at 24 h. […] As a control, one group of replicate serum tubes contained only [^55Co]CoCl2. […] Therefore, the peak corresponding to free [^55Co]CoCl2 (tR = 2.2 min) was used to determine the overall serum stability of the ^55Co-labeled chelates, which was approximately 95% for each compound at 24 h.
The ^55Co-labeled folate derivatives were diluted 10-fold in 10 mM PBS (pH = 7.4) or whole mouse serum (EMD Millipore, Burlington, MA) in 1.5 mL centrifuge tubes to final volumes of 100 μL. The tubes were incubated at 37 °C with vortexing at 900 rpm using an Eppendorf ThermoMixer C (Eppendorf, Hamburg, Germany) equipped with a 1.5 mL heating block. In the case of PBS stability, three replicate tubes were prepared with average final activity concentrations of 37 kBq (1 μCi) [^55Co]Co-cm10/μL or 37 kBq (1 μCi) [^55Co]Co-rf42/μL, and the final concentrations of precursor were 0.07 mM of cm10 or rf42. The percent of the intact complex was determined by analyzing 1 μL aliquots of each solution by radio-TLC at 1 h, 4 h and 24 h. For mouse serum stability, three replicate tubes were prepared for each time point for each complex. The final average activity concentrations were 11.1 kBq (0.3 μCi) [^55Co]Co-cm10/μL and 7.4 kBq (0.2 μCi) [^55Co]Co-rf42/μL and 0.02 mM final folate concentration. A control sample was prepared for each time point that contained an average of 10.4 kBq/μL of [^55Co]CoCl2. At each time point, 300 μL of ACN was added to each tube to precipitate serum proteins. The tubes were centrifuged at 4500 rpm for 5 min using a benchtop microcentrifuge (Eppendorf, Hamburg, Germany) and the supernatants collected. The pellets were washed once more, and the supernatants were collected and combined with the first ACN wash. The activities in the pellets and supernatants were determined using a 2480 Wizard2 Automatic Gamma Counter (Perkin Elmer, Waltham, MA, USA) to determine the amount of activity associated with the protein pellet. To determine the percentage of intact complex, the supernatant was diluted 2-fold with water, and 100 μL of this mixture was injected into the HPLC.

[2] = set-up: method as in PMID 18246556, doi:10.1016/S0277-5387(99)00369-1, doi:10.1351/pac200577081445; settings: remaining carboxylic acid O of DOTA in the Co(II) complex; cited from earlier work

Row | percent intact complex, mouse serum ([1]; 1 h) [%] | percent intact complex, mouse serum ([1]; 4 h) [%] | percent intact complex, mouse serum ([1]; 24 h) | SMILES | pKa [2]
1 | 98 ± 1 | 97.8 ± 0.6 | 94% and 95 ± 1% | Nc1nc2ncc(CNc3ccc(C(=O)N[C@@H](CCC(=O)NC(CCCCNC(=O)CN4CCN(CC(=O)O)CCN(CC(=O)O)CCN(CC(=O)O)CC4)C(=O)NC(CCCCNC(=O)CCCc4ccc(I)cc4)C(=O)O)C(=O)O)cc3)nc2c(=O)[nH]1.[55Co] (stereo partly shown) [[^55Co]Co-cm10] | 4.04
2 | 97.5 ± 0.5 | 97.2 ± 0.4 | 94% and 94.6 ± 0.6% | Nc1nc2ncc(CNc3ccc(C(=O)N[C@@H](CCC(=O)NC(CCCCNC(=O)CCC(C(=O)O)N4CCN(CC(=O)O)CCN(CC(=O)O)CC4)C(=O)NC(CCCCNC(=O)CCCc4ccc(I)cc4)C(=O)O)C(=O)O)cc3)nc2c(=O)[nH]1.[55Co] (stereo partly shown) [[^55Co]Co-rf42] | 

— PMC6958329, “New ^55Co-labeled Albumin-Binding Folate Derivatives as Potential PET Agents for Folate Receptor Imaging” (Pharmaceuticals, 2019)
